Reference: article PMC8466781, “Evaluation of Synthetic 2,4-Disubstituted-benzo[g]quinoxaline Derivatives as Potential Anticancer Agents” (Pharmaceuticals, 2021)

Key:
[1] = tested on: breast MCF-7 cancer cell line; assay: MTT cytotoxicity assay against breast MCF-7 cancer cell line; assay type: cell-based; conditions: Homo sapiens, MCF7, 24 h treatment, mean ± SD, n = 3 experiments, read-out: IC50 (μM) MCF-7, in vitro cytotoxic activity
Description: The effect of the prepared benzo[g]quinoxaline derivatives 2–9 on the viability of breast MCF-7 cancer cell line was studied using MTT assay. The cytotoxicity was assessed using Dox as positive reference drug.
Antitumor activity of the newly prepared benzo[g]quinoxaline derivatives 2–9 were carried out against breast MCF-7 cancer cell line using MTT assay method. Cells at density of 1 × 10^4 were seeded in 96-well plate at 37 °C for 48 h under 5% CO2. After incubation, the cells were treated with different concentration of the prepared molecules and incubated for 24 h. MTT dye was added at the end of 24 h of drug treatment and incubated for 4 h at 37 °C. 100 µL of dimethyl sulphoxide was added to each well to dissolve the purple formazan formed. The color intensity of the formazan product, which represents the growth condition of the cells, was quantified using an ELISA plate reader at 570 nm. The experimental conditions were carried out with at least three replicates and the experiments were repeated at least three times.

Bcl2 = assay: ELISA measurement of Bcl2 level in MCF-7 cells; assay type: cell-based; conditions: MCF-7 cells treated at IC50 (2.89 µM)
Description: (§1) In order to investigate the molecular pathway involved in apoptosis, compound 3 was screened for its ability to activate pro-apoptotic protein; Bax and downregulate anti-apoptotic protein; Bcl2 [31]. The MCF-7 cancer cell line was treated with compound 3 at its IC50 value (µM) and the level of expression of proteins involved in apoptosis was quantized using ELISA assay. […] Therefore, it can be concluded that compound 3 can induce the intrinsic pathway of apoptosis by activation of Bax and downregulation of Bcl2.
(§2) The levels of the apoptotic marker Bax, Bcl-2, and Fas/Fas-l were assessed using ELISA kit. The procedure of the used kits was completed according to the manufacturer’s instructions. Briefly, cell lysates were prepared from control and MCF-7 cells (2.5 × 10^5) treated with IC50 concentration of compound 3. Then, equal amounts of cell lysates were loaded then probed with specific antibodies. The samples were measured at 450 nm in ROBONEK P2000 ELISA reader. All experiments were performed in duplicate.
(§3) Figure 6 Effect of compound 3 on apoptosis related proteins, Bax, Bcl2, and Fas/Fas-L in MCF-7 cells. […] Data was expressed as mean ± SD (n = 3 experiments) and statistical comparisons were carried out using one-way analysis of variance (ANOVA) followed by Tukey’s multiple comparison test (*** p < 0.001).

MCF-7 cells [2] = assay: Annexin V-FITC/PI apoptosis staining assay (flow cytometry); assay type: cell-based; conditions: MCF-7, compound at IC50 concentration, 48 h
Description: Apoptosis staining assay was performed to detect the effect of compound 3 on the percentage of early and late apoptosis in the breast MCF-7 cancer cell line. […] Therefore, compound 3 can be considered an apoptosis inducer in the breast MCF-7 cell line.
Apoptosis in MCF-7 cells was investigated using fluorescent Annexin V-FITC/PI detection kit by flow cytometry assay. Briefly, MCF-7 cells (2 × 10^5) after incubation for 12 h. Cells were treated with compound 3 at its IC50 concentration for 48 h, then the cells were harvested and stained with Annexin V-FITC/PI dye for 15 min in the dark at 37 °C. Flow cytometry analyses were performed using FACS Calibur flow cytometer (Becton and Dickinson, Heidelberg, Germany).
Figure 5 (A) Graphical representation of the effect of compound 3 on induction of apoptosis in MCF-7 cell line. (B) Effect of compound 3 on induction of apoptosis in MCF-7 cell line. Data are expressed as the mean ± SD (n = 3 experiments) and statistical comparisons were carried out using one-way analysis of variance (ANOVA) followed by Tukey’s multiple comparison test (** p < 0.01, and *** p < 0.001). […] The Comp 3 values are given in the order upper left, upper right, lower right, with no measure name. / The Control MCF-7 plot prints 1.51%, 0.13% and 0.77%. These are left out because the untreated control is not a substance.

Bax = assay: ELISA measurement of Bax level in MCF-7 cells; assay type: cell-based; conditions: MCF-7 cells treated at IC50 (2.89 µM)
Description: as §1, §2, §3

MCF-7 cells [3] = assay: Cell cycle analysis by DNA flow cytometry (PI staining); assay type: cell-based; conditions: MCF-7, compound at IC50 (2.89 µM), 48 h; untreated control 2.41%
Description: Compound 3 was tested at its IC50 concentration dose value.
MCF-7 cells (2 × 10^5/well) were harvested and washed twice in PBS. After that, cells were incubated at 37 °C and 5% CO2. The medium was replaced with (DMSO 1% v/v) containing the tested compound, then incubated for 48 h, washed twice in PBS, fixed with 70% ethanol, rinsed again with PBS, and then stained with DNA fluorochrome PI for 15 min at 37 °C. DNA content was analyzed by flow cytometry on a FACS Calibur flow cytometer (Becton and Dickinson, Heidelberg, Germany).
Figure 4 (A) Graphical representation of percentages of cells in pre-G1, G1, G2/M, and S cell cycle phase in MCF-7 cells treated with compound 3 (2.89 µM) for 48 h. (B) Effect of compound 3 (2.89 µM) on cell cycle distribution in MCF-7 cells for 48 h and analyzed by flow cytometry after staining with DNA fluorochrome propidium iodide; most of the compound 3 treated cells were in pre-G1 phase (apoptosis). Data are expressed as the mean ± SD (n = 3 experiments) and statistical comparisons were carried out using one-way analysis of variance (ANOVA) followed by Tukey’s multiple comparison test (*** p < 0.001). ***-Highly significant. […]

topoisomerase IIβ = target: T1, topoisomerase IIβ (Homo sapiens, UniProt Q02880); assay: Topoisomerase IIβ enzyme inhibition assay (Human DNA topo IIβ ELISA Kit # MBS942146); assay type: biochemical
T1 construct: purchased MBS942146
Description: To obtain a further insight into the mechanism of cell proliferation inhibition activity, benzo[g]quinoxaline molecule 3 was investigated for topoisomerase IIβ (topo IIβ) inhibitory activity using the Human DNA topo IIβ ELISA Kit # MBS942146.
Compound 3 and Dox were evaluated against topoisomerase IIβ for their inhibitory concentration (µM) using four doses concentration according to manufacturer’s instructions.
Figure 3 Graphical representation for comparison of topo IIβ IC50 of compound 3 and Dox; topo II was performed using four doses protocol for compound 3 and Dox, and the concentration that induced 50% maximum inhibition of topo II was determined from sigmoidal dose–response. Data are expressed as the mean ± SD (n = 3 experiments) and statistical comparisons were carried out using one-way analysis of variance (ANOVA) followed by Tukey’s multiple comparison test (** p < 0.01). **-Significant.

T1 sequence (Q02880 whole entry): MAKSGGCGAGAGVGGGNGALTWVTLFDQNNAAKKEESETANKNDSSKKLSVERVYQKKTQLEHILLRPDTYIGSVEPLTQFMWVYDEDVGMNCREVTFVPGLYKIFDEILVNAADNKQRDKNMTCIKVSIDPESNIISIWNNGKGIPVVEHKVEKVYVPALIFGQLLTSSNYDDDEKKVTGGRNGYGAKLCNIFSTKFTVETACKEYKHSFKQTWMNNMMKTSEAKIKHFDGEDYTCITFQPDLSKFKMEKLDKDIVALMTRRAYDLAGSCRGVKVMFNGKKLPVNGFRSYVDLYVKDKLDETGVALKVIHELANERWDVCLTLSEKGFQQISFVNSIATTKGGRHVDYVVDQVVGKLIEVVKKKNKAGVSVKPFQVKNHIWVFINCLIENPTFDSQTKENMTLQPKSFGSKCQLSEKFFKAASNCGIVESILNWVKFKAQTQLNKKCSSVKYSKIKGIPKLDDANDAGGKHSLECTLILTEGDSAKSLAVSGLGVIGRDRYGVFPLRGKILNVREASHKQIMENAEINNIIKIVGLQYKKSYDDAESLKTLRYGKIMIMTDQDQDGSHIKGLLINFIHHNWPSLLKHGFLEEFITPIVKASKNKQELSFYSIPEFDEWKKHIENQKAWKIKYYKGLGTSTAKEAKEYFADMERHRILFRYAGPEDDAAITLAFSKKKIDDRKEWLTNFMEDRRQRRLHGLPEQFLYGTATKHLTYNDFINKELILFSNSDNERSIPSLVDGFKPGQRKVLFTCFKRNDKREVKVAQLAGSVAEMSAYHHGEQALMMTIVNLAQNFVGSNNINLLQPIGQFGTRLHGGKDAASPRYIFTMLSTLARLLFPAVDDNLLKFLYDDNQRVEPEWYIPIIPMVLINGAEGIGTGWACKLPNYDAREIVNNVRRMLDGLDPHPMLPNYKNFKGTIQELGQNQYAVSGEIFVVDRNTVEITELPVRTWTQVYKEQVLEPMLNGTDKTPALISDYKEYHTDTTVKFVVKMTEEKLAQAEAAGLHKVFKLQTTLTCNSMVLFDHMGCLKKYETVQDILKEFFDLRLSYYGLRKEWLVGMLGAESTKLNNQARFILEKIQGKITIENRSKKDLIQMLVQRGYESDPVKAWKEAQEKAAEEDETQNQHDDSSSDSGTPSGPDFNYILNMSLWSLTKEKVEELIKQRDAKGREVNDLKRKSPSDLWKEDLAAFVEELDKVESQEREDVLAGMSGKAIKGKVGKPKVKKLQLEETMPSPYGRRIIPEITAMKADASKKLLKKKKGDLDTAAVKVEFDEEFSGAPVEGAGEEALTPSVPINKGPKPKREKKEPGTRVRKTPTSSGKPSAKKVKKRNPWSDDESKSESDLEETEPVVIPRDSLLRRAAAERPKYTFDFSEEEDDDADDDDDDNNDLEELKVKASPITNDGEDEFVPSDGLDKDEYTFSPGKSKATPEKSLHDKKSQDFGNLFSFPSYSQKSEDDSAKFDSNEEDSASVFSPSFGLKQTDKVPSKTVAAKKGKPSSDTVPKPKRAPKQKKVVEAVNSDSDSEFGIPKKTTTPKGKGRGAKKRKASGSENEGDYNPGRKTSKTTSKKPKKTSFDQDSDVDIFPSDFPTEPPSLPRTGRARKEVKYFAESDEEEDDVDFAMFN

SMILES | melting point [°C] | IC50 [1] [µM] | also measured
Clc1ccc(-c2cnc3cc4ccccc4cc3n2)cc1 [Compound 3, 2-(4-Chlorophenyl)benzo[g]quinoxaline] | 168 to 170 | 2.89 ± 0.11 | downregulation of Bcl2 compared with untreated control (Bcl2): 4.35 fold; apoptosis percentage at late stage (upper right quadrant) (MCF-7 cells [2]; untreated control 0.13%): 21.38%; apoptosis percentage at the early stage (lower right quadrant) (MCF-7 cells [2]; untreated control 0.77%): 1.59%; increase of Bax expression compared with untreated control (Bax): 3.89 fold; percentage of cells at the pre-G1 phase (MCF-7 cells [3]): 38.24%
Nc1c(NCC(=O)c2ccc(Cl)cc2)c(Br)c2ccccc2c1Br [Compound 8, 2-(3-Amino-1,4-dibromonaphthalen-2-ylamino)-1-(4-chlorophenyl)ethanone] | 225 to 227 |  | 
CC(=O)N1CC(c2ccc(Cl)cc2)=Nc2c1c(Br)c1ccccc1c2Br [Compound 9, 1-(5,10-Dibromo-3-(4-chlorophenyl)benzo[g]quinoxalin-1(2H)-yl)ethanone] | 205 to 207 | 8.84 ± 0.36 | 
COc1cccc2c1C(=O)c1c(O)c3c(c(O)c1C2=O)C[C@@](O)(C(=O)CO)C[C@@H]3O[C@H]1C[C@H](N)[C@H](O)[C@H](C)O1 [Dox, Doxorubicin, reference compound] |  | 2.01 ± 0.01 | IC50 (topoisomerase IIβ): 3.31 µM

Continued, in another order:

melting point [°C] | SMILES | IC50 [1] [µM] | also measured
195 to 197 | Clc1ccc(C2=Nc3cc4ccccc4cc3NC2)cc1 [Compound 2, 3-(4-Chlorophenyl)-1,2-dihydrobenzo[g]quinoxaline] | 17.2 ± 0.69 | 
171 to 173 | CC(=O)N1C=C(c2ccc(Cl)cc2)Nc2cc3ccccc3cc21 [Compound 4, 1-(3-(4-Chlorophenyl)benzo[g]quinoxalin-1(4H)-yl)ethanone] | 16.2 ± 0.58 | 
146 to 148 | CCOC(=O)C(C#N)=C(c1ccc(O)c(OC)c1)N1C=C(c2ccc(Cl)cc2)Nc2cc3ccccc3cc21 [Compound 5, Ethyl 3-(3-(4-Chlorophenyl)benzo[g]quinoxalin-1(4H)-yl)-2-cyano-3-(4-hydroxy-3-methoxyphenyl)acrylate] | 32.1 ± 1.11 | 
